Results as given in US20030162803A1, “Anhydrovinblastine for the treatment of cancer” (priority 1997, published 2003).

Legend:
[1] = Toxicological studies in dogs; type: in vivo
[2] = Toxicological studies in rats; type: in vivo
[3] = Phase I clinical trial, pharmacokinetics (serum, HPLC, 2-compartment model); type: in vivo, human patients; parameters: AUC: unit not given here
Method: AHVB blood serum concentrations were measured at 0, 0.33, 0.67, 1, 1.25, 1.5, 2, 4, 6, 8, 12, 24, 48, and 72 hrs after the start of each infusion. […] The serum extracts were assayed using high pressure liquid chromatography (HPLC) and were fit to a 2-compartment pharmacokinetic model for determination of pharmacokinetic parameters (see Table 5).
There appears to be no significant change in clearance observed between smaller and larger doses (p>0.2 by linear regression). […] Similarly, AUC appeared to increase linearly with dose (r^2=0.82, p<0.05) (FIG. 12).

C-4 cells = assay: Cytotoxicity assay, C-4 (FIG. 8); type: cell-based, human; settings: 3 day incubation
Method: The IC50s for the SK0V3 and C-4 cells were 4.0 μM and 0.02 μM respectively. Both cell lines were obtained from the ATCC and grown using standard growth techniques and medium as described above. The IC50s were determined through standard cytoxicity assays described above, with each well containing approximately 10^4 cells.

[4] = tested on: advanced refractory solid tumors; assay: Phase I clinical trial, disease response; type: in vivo, human patients
Method: Patients had normal bone marrow, hepatic and renal function. Twenty-four patients were treated with escalating doses of AHVB, administered as a 1 hour infusion every 3 weeks. The 24 patients comprised 12 male and 12 female patients with a median age of 60 years (range 27-75 years). Twenty-one of the 24 patients were evaluable. Diagnoses were non-small cell lung cancer (NSCLC), colorectal cancer, soft tissue sarcoma, pancreatic cancer, breast cancer and metastatic neuroendocrine cancer in 11, 5, 4, 1, 1, and 1 patient(s), respectively. […] A total of 51 courses were administered at doses of 2.5, 5, 10,16.5, 21,25 and 30 mg/m^2 to 1,3, 1,3, 6, 6 and 1 patient(s), respectively (see Table 4).

SMILES: CCC1=C[C@H]2CN(CCc3c([nH]c4ccccc34)[C@@](C(=O)OC)(c3cc4c(cc3OC)N(C)[C@H]3[C@@](O)(C(=O)OC)[C@H](OC(C)=O)[C@]5(CC)C=CCN6CC[C@]43[C@@H]65)C2)C1 [AHVB, 3′,4′-anhydrovinblastine]
- toxicities [1]: reversible myelosupression and gastrointestinal toxicities
- toxicities [2]: reversible myelosupression and gastrointestinal toxicities
- pharmacokinetics, dose linearity ([3]; 2.5-30 mg/m^2, 1 hour infusion): linear
- T1/2 al ([3]; All Data, N 20, Max): 0.393 h
- T1/2 be ([3]; All Data, N 20, Max): 63.10 h
- T1/2 al (alpha half-life) ([3]; All Data, N 20, Mean): 0.19 h
- T1/2 be (beta half-life) ([3]; All Data, N 20, Mean): 20.8 h
- T1/2 al ([3]; All Data, N 20, Median): 0.17 h
- T1/2 be ([3]; All Data, N 20, Median): 17.60 h
- T1/2 al ([3]; All Data, N 20, Min): 0.07 h
- T1/2 be ([3]; All Data, N 20, Min): 6.63 h
- A ([3]; dose 2.5 mg/m^2, N 1, Value): 134.71 ng/mL
- AUC ([3]; dose 2.5 mg/m^2, N 1, Value): 71.64
- B ([3]; dose 2.5 mg/m^2, N 1, Value): 5.03 ng/mL
- Cmax ([3]; dose 2.5 mg/m^2, N 1, Value): 28.23 ng/mL
- T1/2 al ([3]; dose 2.5 mg/m^2, N 1, Value): 0.12 h
- T1/2 be ([3]; dose 2.5 mg/m^2, N 1, Value): 6.63 h
- A ([3]; dose 5 mg/m^2, N 3, Max): 531.52 ng/mL
- AUC ([3]; dose 5 mg/m^2, N 3, Max): 793.39
- B ([3]; dose 5 mg/m^2, N 3, Max): 9.73 ng/mL
- Cmax ([3]; dose 5 mg/m^2, N 3, Max): 62.40 ng/mL
- T1/2 al ([3]; dose 5 mg/m^2, N 3, Max): 0.17 h
- T1/2 be ([3]; dose 5 mg/m^2, N 3, Max): 63.13 h
- A ([3]; dose 5 mg/m^2, N 3, Mean): 281.82 ng/mL
- AUC ([3]; dose 5 mg/m^2, N 3, Mean): 571.75
- B ([3]; dose 5 mg/m^2, N 3, Mean): 8.04 ng/mL
- Cmax ([3]; dose 5 mg/m^2, N 3, Mean): 51.37 ng/mL
- T1/2 al ([3]; dose 5 mg/m^2, N 3, Mean): 0.14 h
- T1/2 be ([3]; dose 5 mg/m^2, N 3, Mean): 44.36 h
- A ([3]; dose 5 mg/m^2, N 3, Median): 178.39 ng/mL
- AUC ([3]; dose 5 mg/m^2, N 3, Median): 639.67
- B ([3]; dose 5 mg/m^2, N 3, Median): 8.11 ng/mL
- Cmax ([3]; dose 5 mg/m^2, N 3, Median): 53.07 ng/mL
- T1/2 al ([3]; dose 5 mg/m^2, N 3, Median): 0.17 h
- T1/2 be ([3]; dose 5 mg/m^2, N 3, Median): 42.41 h
- A ([3]; dose 5 mg/m^2, N 3, Min): 135.55 ng/mL
- AUC ([3]; dose 5 mg/m^2, N 3, Min): 282.20
- B ([3]; dose 5 mg/m^2, N 3, Min): 6.27 ng/mL
- Cmax ([3]; dose 5 mg/m^2, N 3, Min): 38.65 ng/mL
- T1/2 al ([3]; dose 5 mg/m^2, N 3, Min): 0.07 h
- T1/2 be ([3]; dose 5 mg/m^2, N 3, Min): 27.54 h
- A ([3]; dose 10 mg/m^2, N 1, Value): 109.85 ng/mL
- AUC ([3]; dose 10 mg/m^2, N 1, Value): 247.19
- B ([3]; dose 10 mg/m^2, N 1, Value): 11.49 ng/mL
- Cmax ([3]; dose 10 mg/m^2, N 1, Value): 48.57 ng/mL
- T1/2 al ([3]; dose 10 mg/m^2, N 1, Value): 0.25 h
- T1/2 be ([3]; dose 10 mg/m^2, N 1, Value): 12.50 h
- A ([3]; dose 16.5 mg/m^2, N 5, Max): 816.42 ng/mL
- AUC ([3]; dose 16.5 mg/m^2, N 5, Max): 1791.22
- B ([3]; dose 16.5 mg/m^2, N 5, Max): 34.16 ng/mL
- Cmax ([3]; dose 16.5 mg/m^2, N 5, Max): 231.52 ng/mL
- T1/2 al ([3]; dose 16.5 mg/m^2, N 5, Max): 0.39 h
- T1/2 be ([3]; dose 16.5 mg/m^2, N 5, Max): 33.52 h
- A ([3]; dose 16.5 mg/m^2, N 5, Mean): 509.47 ng/mL
- AUC ([3]; dose 16.5 mg/m^2, N 5, Mean): 824.58
- B ([3]; dose 16.5 mg/m^2, N 5, Mean): 22.50 ng/mL
- Cmax ([3]; dose 16.5 mg/m^2, N 5, Mean): 163.03 ng/mL
- T1/2 al ([3]; dose 16.5 mg/m^2, N 5, Mean): 0.22 h
- T1/2 be ([3]; dose 16.5 mg/m^2, N 5, Mean): 21.35 h
- A ([3]; dose 16.5 mg/m^2, N 5, Median): 478.82 ng/mL
- AUC ([3]; dose 16.5 mg/m^2, N 5, Median): 541.21
- B ([3]; dose 16.5 mg/m^2, N 5, Median): 21.87 ng/mL
- Cmax ([3]; dose 16.5 mg/m^2, N 5, Median): 171.48 ng/mL
- T1/2 al ([3]; dose 16.5 mg/m^2, N 5, Median): 0.20 h
- T1/2 be ([3]; dose 16.5 mg/m^2, N 5, Median): 21.82 h
- A ([3]; dose 16.5 mg/m^2, N 5, Min): 263.49 ng/mL
- AUC ([3]; dose 16.5 mg/m^2, N 5, Min): 511.26
- B ([3]; dose 16.5 mg/m^2, N 5, Min): 6.64 ng/mL
- Cmax ([3]; dose 16.5 mg/m^2, N 5, Min): 96.35 ng/mL
- T1/2 al ([3]; dose 16.5 mg/m^2, N 5, Min): 0.13 h
- T1/2 be ([3]; dose 16.5 mg/m^2, N 5, Min): 8.21 h
- A ([3]; dose 21 mg/m^2, N 3, Max): 1197.78 ng/mL
- AUC ([3]; dose 21 mg/m^2, N 3, Max): 1402.11
- B ([3]; dose 21 mg/m^2, N 3, Max): 28.54 ng/mL
- Cmax ([3]; dose 21 mg/m^2, N 3, Max): 340.46 ng/mL
- T1/2 al ([3]; dose 21 mg/m^2, N 3, Max): 0.39 h
- T1/2 be ([3]; dose 21 mg/m^2, N 3, Max): 30.50 h
- A ([3]; dose 21 mg/m^2, N 3, Mean): 774.37 ng/mL
- AUC ([3]; dose 21 mg/m^2, N 3, Mean): 1094.91
- B ([3]; dose 21 mg/m^2, N 3, Mean): 25.92 ng/mL
- Cmax ([3]; dose 21 mg/m^2, N 3, Mean): 257.21 ng/mL
- T1/2 al ([3]; dose 21 mg/m^2, N 3, Mean): 0.26 h
- T1/2 be ([3]; dose 21 mg/m^2, N 3, Mean): 22.88 h
- A ([3]; dose 21 mg/m^2, N 3, Median): 802.43 ng/mL
- AUC ([3]; dose 21 mg/m^2, N 3, Median): 964.03
- B ([3]; dose 21 mg/m^2, N 3, Median): 24.72 ng/mL
- Cmax ([3]; dose 21 mg/m^2, N 3, Median): 252.10 ng/mL
- T1/2 al ([3]; dose 21 mg/m^2, N 3, Median): 0.20 h
- T1/2 be ([3]; dose 21 mg/m^2, N 3, Median): 19.15 h
- A ([3]; dose 21 mg/m^2, N 3, Min): 322.90 ng/mL
- AUC ([3]; dose 21 mg/m^2, N 3, Min): 918.58
- B ([3]; dose 21 mg/m^2, N 3, Min): 24.50 ng/mL
- Cmax ([3]; dose 21 mg/m^2, N 3, Min): 179.07 ng/mL
- T1/2 al ([3]; dose 21 mg/m^2, N 3, Min): 0.19 h
- T1/2 be ([3]; dose 21 mg/m^2, N 3, Min): 19.00 h
- A ([3]; dose 25 mg/m^2, N 6, Max): 1952.78 ng/mL
- AUC ([3]; dose 25 mg/m^2, N 6, Max): 1202.01
- B ([3]; dose 25 mg/m^2, N 6, Max): 48.76 ng/mL
- Cmax ([3]; dose 25 mg/m^2, N 6, Max): 368.79 ng/mL
- T1/2 al ([3]; dose 25 mg/m^2, N 6, Max): 0.36 h
- T1/2 be ([3]; dose 25 mg/m^2, N 6, Max): 16.29 h
- A ([3]; dose 25 mg/m^2, N 6, Mean): 1122.91 ng/mL
- AUC ([3]; dose 25 mg/m^2, N 6, Mean): 764.83
- B ([3]; dose 25 mg/m^2, N 6, Mean): 34.51 ng/mL
- Cmax ([3]; dose 25 mg/m^2, N 6, Mean): 273.43 ng/mL
- T1/2 al ([3]; dose 25 mg/m^2, N 6, Mean): 0.18 h
- T1/2 be ([3]; dose 25 mg/m^2, N 6, Mean): 10.68 h
- A ([3]; dose 25 mg/m^2, N 6, Median): 1062.6 ng/mL
- AUC ([3]; dose 25 mg/m^2, N 6, Median): 750.85
- B ([3]; dose 25 mg/m^2, N 6, Median): 35.06 ng/mL
- Cmax ([3]; dose 25 mg/m^2, N 6, Median): 287.71 ng/mL
- T1/2 al ([3]; dose 25 mg/m^2, N 6, Median): 0.16 h
- T1/2 be ([3]; dose 25 mg/m^2, N 6, Median): 10.54 h
- A ([3]; dose 25 mg/m^2, N 6, Min): 379.79 ng/mL
- AUC ([3]; dose 25 mg/m^2, N 6, Min): 436.85
- B ([3]; dose 25 mg/m^2, N 6, Min): 20.78 ng/mL
- Cmax ([3]; dose 25 mg/m^2, N 6, Min): 108.52 ng/mL
- T1/2 al ([3]; dose 25 mg/m^2, N 6, Min): 0.11 h
- T1/2 be ([3]; dose 25 mg/m^2, N 6, Min): 6.73 h
- A ([3]; dose 30 mg/m^2, N 1, Value): 3559.02 ng/mL
- AUC ([3]; dose 30 mg/m^2, N 1, Value): 1797.92
- B ([3]; dose 30 mg/m^2, N 1, Value): 36.71 ng/mL
- Cmax ([3]; dose 30 mg/m^2, N 1, Value): 571.08 ng/mL
- T1/2 al ([3]; dose 30 mg/m^2, N 1, Value): 0.10 h
- T1/2 be ([3]; dose 30 mg/m^2, N 1, Value): 23.83 h
- IC50 (C-4 cells): 20 nM
- stable disease ([4]; metastatic NSCLC, 21 and 25 mg/m^2): three patients
- stable disease ([4]; metastatic sarcoma to lungs, 10 mg/M^2): one patient
